{"source": "paper PMC5513037", "about": "“Examining the influence of specificity ligands and ATP-competitive ligands on the overall effectiveness of bivalent kinase inhibitors” (Proteome Science, 2017)", "key": {"[1]": {"biological_target": "T1, BTK (Homo sapiens, UniProt Q06187)", "T1 construct": "endogenous in cells; host or cells: K562", "T1 sequence (Q06187 whole entry)": "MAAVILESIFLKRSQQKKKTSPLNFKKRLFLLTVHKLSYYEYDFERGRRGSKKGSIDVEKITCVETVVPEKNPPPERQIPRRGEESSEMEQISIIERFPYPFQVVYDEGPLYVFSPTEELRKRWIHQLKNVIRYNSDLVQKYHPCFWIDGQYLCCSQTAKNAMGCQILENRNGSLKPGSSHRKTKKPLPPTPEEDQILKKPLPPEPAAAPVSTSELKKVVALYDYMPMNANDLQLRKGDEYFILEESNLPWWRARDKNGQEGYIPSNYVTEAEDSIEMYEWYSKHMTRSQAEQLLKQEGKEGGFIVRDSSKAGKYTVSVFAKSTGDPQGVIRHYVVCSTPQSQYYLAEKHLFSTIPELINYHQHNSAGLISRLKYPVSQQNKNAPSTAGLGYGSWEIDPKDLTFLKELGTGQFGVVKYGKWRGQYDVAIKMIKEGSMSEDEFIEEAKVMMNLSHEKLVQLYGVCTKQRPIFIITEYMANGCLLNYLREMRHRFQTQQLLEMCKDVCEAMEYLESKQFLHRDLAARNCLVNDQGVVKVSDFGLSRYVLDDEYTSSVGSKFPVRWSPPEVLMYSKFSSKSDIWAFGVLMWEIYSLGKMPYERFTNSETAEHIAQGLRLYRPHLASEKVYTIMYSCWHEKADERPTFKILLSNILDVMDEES", "assay": "KAM-matrix competition in K562 lysate;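 for 0.001 uM KAM: median log10 fold change of treatment over DMSO control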;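 for 0.01 uM KAM: median log10 fold change of treatment over DMSO control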;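 for 0.1 uM KAM: median log10 fold change of treatment over DMSO control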;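 for 1 uM KAM: median log10 fold change of treatment over DMSO control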;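 for 10 uM KAM: median log10 fold change of treatment over DMSO control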", "assay_type": "binding", "procedure": "(§1) Supplement 12953_2017_125_MOESM1_ESM.zip/MS_Supp Info.xlsx, sheet \"KAM\" | column: 10 uM KAM; 1 uM KAM; 0.1 uM KAM; 0.01 uM KAM; 0.001 uM KAM; RB50"}, "[2]": {"biological_target": "T2, CDK7 (Homo sapiens, UniProt P50613)", "T2 construct": "endogenous in cells; host or cells: K562", "T2 sequence (P50613 2-346 limits assumed)": "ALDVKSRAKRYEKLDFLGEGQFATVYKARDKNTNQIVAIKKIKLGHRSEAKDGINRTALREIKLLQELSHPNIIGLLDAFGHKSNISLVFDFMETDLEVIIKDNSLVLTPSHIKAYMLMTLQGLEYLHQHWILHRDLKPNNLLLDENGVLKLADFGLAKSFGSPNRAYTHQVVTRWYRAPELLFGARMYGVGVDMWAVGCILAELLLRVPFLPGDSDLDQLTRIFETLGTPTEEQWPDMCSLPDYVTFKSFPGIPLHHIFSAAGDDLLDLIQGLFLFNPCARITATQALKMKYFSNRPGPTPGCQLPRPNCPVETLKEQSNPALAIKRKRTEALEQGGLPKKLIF", "T2 sequence (P51946 whole entry partner)": "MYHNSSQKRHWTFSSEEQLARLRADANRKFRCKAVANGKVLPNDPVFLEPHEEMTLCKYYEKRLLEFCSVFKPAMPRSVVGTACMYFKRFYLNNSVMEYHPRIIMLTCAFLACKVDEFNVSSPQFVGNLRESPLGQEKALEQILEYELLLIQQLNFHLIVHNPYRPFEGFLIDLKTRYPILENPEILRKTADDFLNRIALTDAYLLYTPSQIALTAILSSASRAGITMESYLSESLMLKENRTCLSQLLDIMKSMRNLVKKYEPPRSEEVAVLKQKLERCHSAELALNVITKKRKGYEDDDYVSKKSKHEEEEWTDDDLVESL", "T2 sequence (P51948 whole entry partner)": "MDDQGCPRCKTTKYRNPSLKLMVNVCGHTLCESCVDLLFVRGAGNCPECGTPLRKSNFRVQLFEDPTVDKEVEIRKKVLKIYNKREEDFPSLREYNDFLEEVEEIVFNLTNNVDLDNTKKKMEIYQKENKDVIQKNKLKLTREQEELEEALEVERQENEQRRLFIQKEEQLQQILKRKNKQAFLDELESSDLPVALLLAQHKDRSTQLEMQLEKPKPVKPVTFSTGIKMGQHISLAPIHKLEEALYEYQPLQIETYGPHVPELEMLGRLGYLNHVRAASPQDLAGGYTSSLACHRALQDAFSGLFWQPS", "assay": "KAM-matrix competition in K562 lysate", "assay_type": "binding", "procedure": "as §1"}, "[3]": {"assay": "KAM-matrix competition in K562 lysate", "assay_type": "binding, human", "conditions": "read-out: RB50 (the source's name)", "procedure": "as §1"}, "[4]": {"biological_target": "T3, BCR (Homo sapiens, UniProt P00519+P11274)", "T3 construct": "ABL1 (fusion partner in BCR-ABL); endogenous in cells; host or cells: K562 lysate", "T3 sequence (P11274+P00519 fused)": "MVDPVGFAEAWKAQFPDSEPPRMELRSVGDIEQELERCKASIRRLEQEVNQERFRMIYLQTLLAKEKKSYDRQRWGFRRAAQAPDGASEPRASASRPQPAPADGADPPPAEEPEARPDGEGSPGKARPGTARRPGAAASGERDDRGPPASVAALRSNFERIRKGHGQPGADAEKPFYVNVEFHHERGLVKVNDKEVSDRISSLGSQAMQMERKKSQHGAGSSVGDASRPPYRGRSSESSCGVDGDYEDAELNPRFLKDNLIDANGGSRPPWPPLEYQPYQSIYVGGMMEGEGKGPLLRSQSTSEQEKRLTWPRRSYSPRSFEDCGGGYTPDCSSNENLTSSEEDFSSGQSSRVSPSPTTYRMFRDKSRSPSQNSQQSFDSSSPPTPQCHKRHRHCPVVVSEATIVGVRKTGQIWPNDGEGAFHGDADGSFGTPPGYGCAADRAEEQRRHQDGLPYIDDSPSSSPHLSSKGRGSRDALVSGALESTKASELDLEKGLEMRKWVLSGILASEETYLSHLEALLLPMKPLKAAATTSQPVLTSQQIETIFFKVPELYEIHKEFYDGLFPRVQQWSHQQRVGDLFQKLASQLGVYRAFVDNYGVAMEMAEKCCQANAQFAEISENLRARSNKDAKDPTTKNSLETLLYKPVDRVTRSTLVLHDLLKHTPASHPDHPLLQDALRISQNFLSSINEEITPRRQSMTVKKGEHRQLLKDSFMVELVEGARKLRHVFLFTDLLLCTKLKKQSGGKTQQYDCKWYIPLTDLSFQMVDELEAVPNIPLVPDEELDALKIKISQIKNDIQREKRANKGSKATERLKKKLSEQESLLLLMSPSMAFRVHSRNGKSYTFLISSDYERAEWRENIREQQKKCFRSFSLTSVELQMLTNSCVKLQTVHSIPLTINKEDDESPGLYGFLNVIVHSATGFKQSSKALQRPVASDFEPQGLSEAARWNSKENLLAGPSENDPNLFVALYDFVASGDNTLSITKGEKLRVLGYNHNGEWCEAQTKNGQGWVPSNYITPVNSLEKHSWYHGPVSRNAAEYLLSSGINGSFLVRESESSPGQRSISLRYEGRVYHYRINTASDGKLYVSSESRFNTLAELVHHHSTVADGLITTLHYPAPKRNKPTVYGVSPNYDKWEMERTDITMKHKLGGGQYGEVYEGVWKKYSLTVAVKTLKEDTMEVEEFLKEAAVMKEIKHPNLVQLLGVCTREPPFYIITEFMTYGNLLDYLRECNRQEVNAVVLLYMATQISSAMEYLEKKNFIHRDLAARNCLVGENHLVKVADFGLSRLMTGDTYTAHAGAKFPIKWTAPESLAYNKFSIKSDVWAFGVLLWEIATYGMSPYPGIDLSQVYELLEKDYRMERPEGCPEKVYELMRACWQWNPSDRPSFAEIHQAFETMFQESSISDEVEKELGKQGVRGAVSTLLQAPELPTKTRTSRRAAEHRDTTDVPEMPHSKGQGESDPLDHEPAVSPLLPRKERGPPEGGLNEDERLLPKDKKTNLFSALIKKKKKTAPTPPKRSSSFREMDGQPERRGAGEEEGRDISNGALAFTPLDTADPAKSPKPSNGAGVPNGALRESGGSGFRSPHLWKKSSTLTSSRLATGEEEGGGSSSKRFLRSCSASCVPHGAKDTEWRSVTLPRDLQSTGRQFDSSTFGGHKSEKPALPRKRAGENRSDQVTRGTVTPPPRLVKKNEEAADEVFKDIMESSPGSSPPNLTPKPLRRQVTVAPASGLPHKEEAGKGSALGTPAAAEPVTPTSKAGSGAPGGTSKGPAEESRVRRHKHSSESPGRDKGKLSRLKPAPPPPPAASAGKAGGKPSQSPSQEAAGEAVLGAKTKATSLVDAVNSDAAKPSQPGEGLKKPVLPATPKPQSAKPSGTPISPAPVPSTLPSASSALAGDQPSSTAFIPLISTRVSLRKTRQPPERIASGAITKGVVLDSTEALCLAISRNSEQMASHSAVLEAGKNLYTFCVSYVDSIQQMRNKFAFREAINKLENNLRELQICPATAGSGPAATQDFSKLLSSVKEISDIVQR", "assay": "KAM-matrix competition in K562 lysate", "assay_type": "binding", "procedure": "as §1"}, "[5]": {"biological_target": "T4, ACVR1 (Homo sapiens, UniProt Q04771)", "T4 construct": "endogenous in cells; host or cells: K562", "T4 sequence (Q04771 21-509)": "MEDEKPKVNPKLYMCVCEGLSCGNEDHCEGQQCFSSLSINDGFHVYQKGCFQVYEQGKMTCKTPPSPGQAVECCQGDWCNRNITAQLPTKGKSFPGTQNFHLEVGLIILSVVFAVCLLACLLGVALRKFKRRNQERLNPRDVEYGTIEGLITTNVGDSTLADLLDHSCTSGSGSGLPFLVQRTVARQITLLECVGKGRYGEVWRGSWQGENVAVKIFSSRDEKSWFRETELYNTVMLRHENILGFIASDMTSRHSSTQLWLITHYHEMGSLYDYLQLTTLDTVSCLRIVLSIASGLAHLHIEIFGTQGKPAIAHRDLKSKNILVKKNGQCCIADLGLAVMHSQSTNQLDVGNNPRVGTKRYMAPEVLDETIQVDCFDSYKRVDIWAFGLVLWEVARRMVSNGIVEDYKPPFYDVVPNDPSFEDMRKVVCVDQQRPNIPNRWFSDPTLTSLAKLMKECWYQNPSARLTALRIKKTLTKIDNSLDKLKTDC", "assay": "KAM-matrix competition in K562 lysate", "assay_type": "binding", "procedure": "as §1"}, "[6]": {"biological_target": "T5, CAMK4 (Homo sapiens, UniProt Q16566)", "T5 construct": "endogenous in cells; host or cells: K562", "T5 sequence (Q16566 1-473)": "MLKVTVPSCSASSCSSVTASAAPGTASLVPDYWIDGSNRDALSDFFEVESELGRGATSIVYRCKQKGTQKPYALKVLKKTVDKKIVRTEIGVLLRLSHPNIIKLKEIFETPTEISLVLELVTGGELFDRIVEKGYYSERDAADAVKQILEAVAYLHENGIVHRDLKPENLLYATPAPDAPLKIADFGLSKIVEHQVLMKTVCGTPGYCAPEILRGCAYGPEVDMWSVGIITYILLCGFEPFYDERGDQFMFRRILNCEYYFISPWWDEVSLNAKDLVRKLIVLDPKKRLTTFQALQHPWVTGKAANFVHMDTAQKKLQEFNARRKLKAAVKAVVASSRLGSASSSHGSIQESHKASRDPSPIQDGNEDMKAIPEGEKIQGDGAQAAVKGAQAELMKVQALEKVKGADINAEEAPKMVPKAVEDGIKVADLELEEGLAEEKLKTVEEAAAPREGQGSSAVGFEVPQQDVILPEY", "assay": "KAM-matrix competition in K562 lysate", "assay_type": "binding", "procedure": "as §1"}, "[7]": {"biological_target": "T6, PKMYT1 (Homo sapiens, UniProt Q99640)", "T6 construct": "endogenous in cells; host or cells: K562", "T6 sequence (Q99640 1-499)": "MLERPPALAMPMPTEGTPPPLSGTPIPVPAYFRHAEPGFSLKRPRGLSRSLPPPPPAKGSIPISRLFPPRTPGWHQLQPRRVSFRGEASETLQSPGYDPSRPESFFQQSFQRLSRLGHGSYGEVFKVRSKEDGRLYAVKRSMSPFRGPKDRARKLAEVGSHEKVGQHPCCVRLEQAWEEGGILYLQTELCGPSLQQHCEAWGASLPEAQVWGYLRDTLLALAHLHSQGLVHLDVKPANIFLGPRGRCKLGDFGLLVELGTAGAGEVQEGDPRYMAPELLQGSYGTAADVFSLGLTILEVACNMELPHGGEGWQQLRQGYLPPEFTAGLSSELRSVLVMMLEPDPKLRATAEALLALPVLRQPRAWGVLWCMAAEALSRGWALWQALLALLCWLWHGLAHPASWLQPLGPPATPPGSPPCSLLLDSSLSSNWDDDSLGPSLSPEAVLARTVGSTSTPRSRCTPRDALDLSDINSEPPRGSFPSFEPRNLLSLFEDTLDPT", "assay": "KAM-matrix competition in K562 lysate", "assay_type": "binding", "procedure": "as §1"}, "[8]": {"conditions": "read-out: RB50 (the source's name)"}, "[9]": {"conditions": "KAM 0.001-10 uM, read-out: RB50 (the source's name)"}}, "data": [{"smiles": "N#CCc1ccc(Nc2nc(NCCCN)cc(Nc3cc(C4CC4)[nH]n3)n2)cc1", "note": "[KAM]", "values": [{"measurement": "median Log10 fold change", "setting": "[1]; 0.001 uM KAM", "value": -0.05218}, {"measurement": "median Log10 fold change", "setting": "[1]; 0.01 uM KAM", "value": -0.04172}, {"measurement": "median Log10 fold change", "setting": "[1]; 0.1 uM KAM", "value": -0.1708}, {"measurement": "median Log10 fold change", "setting": "[1]; 1 uM KAM", "value": -0.3888}, {"measurement": "median Log10 fold change", "setting": "[1]; 10 uM KAM", "value": -0.5091}, {"measurement": "IC50", "setting": "[1]; [8]", "value": 566, "unit": "nM"}, {"measurement": "median Log10 fold change", "setting": "[2]; 0.001 uM KAM", "value": -0.0273}, {"measurement": "median Log10 fold change", "setting": "[2]; 0.01 uM KAM", "value": -0.01722}, {"measurement": "median Log10 fold change", "setting": "[2]; 0.1 uM KAM", "value": -0.1187}, {"measurement": "median Log10 fold change", "setting": "[2]; 1 uM KAM", "value": -0.275}, {"measurement": "median Log10 fold change", "setting": "[2]; 10 uM KAM", "value": -0.3928}, {"measurement": "IC50", "setting": "[2]; [8]", "value": 1660, "unit": "nM"}, {"measurement": "IC50", "setting": "[3]", "value": 435, "unit": "nM"}, {"measurement": "median Log10 fold change", "setting": "[4]; 0.001 uM KAM", "value": -0.02555}, {"measurement": "median Log10 fold change", "setting": "[4]; 0.01 uM KAM", "value": -0.005343}, {"measurement": "median Log10 fold change", "setting": "[4]; 0.1 uM KAM", "value": -0.1851}, {"measurement": "median Log10 fold change", "setting": "[4]; 1 uM KAM", "value": -0.427}, {"measurement": "median Log10 fold change", "setting": "[4]; 10 uM KAM", "value": -0.5622}, {"measurement": "median Log10 fold change", "setting": "[5]; 0.001 uM KAM", "value": 0.003413}, {"measurement": "median Log10 fold change", "setting": "[5]; 0.01 uM KAM", "value": -0.1656}, {"measurement": "median Log10 fold change", "setting": "[5]; 0.1 uM KAM", "value": -0.6449}, {"measurement": "median Log10 fold change", "setting": "[5]; 1 uM KAM", "value": -0.6498}, {"measurement": "median Log10 fold change", "setting": "[5]; 10 uM KAM", "value": -0.7414}, {"measurement": "IC50", "setting": "[5]; [8]", "value": 27, "unit": "nM"}, {"measurement": "IC50", "setting": "[6]; [9]", "value": "> 10000", "unit": "nM"}, {"measurement": "0.001 uM KAM", "setting": "[6]; relative to 0 uM KAM = 0", "value": -0.0432}, {"measurement": "0.01 uM KAM", "setting": "[6]; relative to 0 uM KAM = 0", "value": 0.002565}, {"measurement": "0.1 uM KAM", "setting": "[6]; relative to 0 uM KAM = 0", "value": 0.008768}, {"measurement": "1 uM KAM", "setting": "[6]; relative to 0 uM KAM = 0", "value": 0.00582}, {"measurement": "10 uM KAM", "setting": "[6]; relative to 0 uM KAM = 0", "value": -0.03437}, {"measurement": "IC50", "setting": "[7]; [9]", "value": "> 10000", "unit": "nM"}, {"measurement": "0.001 uM KAM", "setting": "[7]; relative to 0 uM KAM = 0", "value": -0.05315}, {"measurement": "0.01 uM KAM", "setting": "[7]; relative to 0 uM KAM = 0", "value": -0.03451}, {"measurement": "0.1 uM KAM", "setting": "[7]; relative to 0 uM KAM = 0", "value": -0.2607}, {"measurement": "1 uM KAM", "setting": "[7]; relative to 0 uM KAM = 0", "value": -0.4249}, {"measurement": "10 uM KAM", "setting": "[7]; relative to 0 uM KAM = 0", "value": -0.2726}]}]}
